Read-outs that look alike come from different tables or passages of the source.
Tests used:
[1] = tested on: polyphosphate-glucose phosphotransferase activity; experiment: C-6 phosphorylation with enzymatic extracts of other Mycobacterium strains (Example 3); details: all the enzymatic preparations (five strains); acceptor 150 mM; 24 hours at 30°C
Excerpt: The bacterial strains used are the followings: • Mycobacterium phlei ATCC 11758, • Mycobacterium smegmatis DSMZ 43465 (equivalent to ATCC 607), • Mycobacterium smegmatis ATCC 607 (equivalent to DSMZ 43465) • Mycobacterium smegmatis ATCC 700084 (or mc^2 155) • Mycobacterium sp DSMZ 2966 (equivalent to NRRL B-3683)

[2] = tested on: polyphosphate-glucose phosphotransferase; details: cited from earlier work; for activity as phosphoryl acceptor: Arthrobacter sp. strain KM, irrespective of the phosphoryl donor, polyphosphate or ATP
rat brain hexokinase = target: T1, rat brain hexokinase (Rattus norvegicus, UniProt P05708); details: relative to glucose 6-phosphate; cited from earlier work
T1 sequence (P05708 1-918): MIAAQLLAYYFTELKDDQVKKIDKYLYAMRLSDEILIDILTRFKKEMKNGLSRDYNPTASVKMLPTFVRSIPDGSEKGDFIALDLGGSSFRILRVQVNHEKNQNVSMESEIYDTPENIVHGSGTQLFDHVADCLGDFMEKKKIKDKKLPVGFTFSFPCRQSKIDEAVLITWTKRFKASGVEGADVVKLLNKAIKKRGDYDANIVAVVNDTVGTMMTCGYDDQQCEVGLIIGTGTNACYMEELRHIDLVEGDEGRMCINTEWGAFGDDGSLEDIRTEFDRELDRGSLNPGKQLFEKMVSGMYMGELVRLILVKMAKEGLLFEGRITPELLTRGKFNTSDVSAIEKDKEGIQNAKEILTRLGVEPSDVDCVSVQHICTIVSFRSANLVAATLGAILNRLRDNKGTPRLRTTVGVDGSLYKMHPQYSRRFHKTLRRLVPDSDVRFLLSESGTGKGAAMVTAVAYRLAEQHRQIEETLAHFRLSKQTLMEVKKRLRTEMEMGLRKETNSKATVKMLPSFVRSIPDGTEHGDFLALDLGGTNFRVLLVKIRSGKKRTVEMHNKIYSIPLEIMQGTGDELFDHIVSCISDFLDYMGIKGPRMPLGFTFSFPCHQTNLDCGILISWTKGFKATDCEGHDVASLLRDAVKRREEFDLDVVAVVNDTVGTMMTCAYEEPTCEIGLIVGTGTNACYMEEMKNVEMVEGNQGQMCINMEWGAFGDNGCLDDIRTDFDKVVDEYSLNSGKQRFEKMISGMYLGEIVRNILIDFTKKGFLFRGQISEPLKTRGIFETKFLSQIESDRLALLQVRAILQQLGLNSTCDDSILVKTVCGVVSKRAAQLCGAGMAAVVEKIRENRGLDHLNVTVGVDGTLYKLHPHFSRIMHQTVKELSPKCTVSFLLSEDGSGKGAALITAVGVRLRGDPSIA

[3] = target: polyphosphate-glucose phosphotransferase (Mycobacterium tuberculosis, UniProt P9WIN1); details: cited from earlier work; for Ki: read-out: Ki (ATP inhibits at high concentration)
polyphosphate-glucose phosphotransferase (Mycobacterium tuberculosis, UniProt P9WIN1), sequence (P9WIN1 whole entry): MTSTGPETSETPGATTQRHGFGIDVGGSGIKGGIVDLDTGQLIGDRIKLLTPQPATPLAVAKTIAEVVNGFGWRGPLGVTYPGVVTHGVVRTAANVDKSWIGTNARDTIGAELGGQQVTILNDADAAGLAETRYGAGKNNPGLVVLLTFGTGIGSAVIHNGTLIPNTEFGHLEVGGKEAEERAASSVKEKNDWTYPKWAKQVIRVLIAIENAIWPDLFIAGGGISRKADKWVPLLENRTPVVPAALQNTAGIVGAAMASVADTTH

[4] = tested on: polyphosphate-glucose phosphotransferase; details: cited from earlier work; for inhibition of the enzyme: donor ATP; for Km: pH 7.5, 30°C
[5] = tested on: polyphosphate-glucose phosphotransferase; details: acceptor D-glucose; label is the phosphate donor; Propionibacterium arabinosum enzyme; cited from earlier work
[6] = tested on: polyphosphate-glucose phosphotransferase; details: acceptor glucose; cited from earlier work
[7] = tested on: polyphosphate-glucose phosphotransferase activity; experiment: C-6 phosphorylation of acceptors with polyphosphate by an enzymatic extract, detected by thin layer chromatography (Examples 1 and 2); details: Example 2; same synthesis and detection conditions as Example 1
[8] = tested on: polyphosphate-glucose phosphotransferase; details: donor ATP, acceptor D-glucose; cited from earlier work
[9] = donor polyphosphate, acceptor D-glucose

Question: Which “synthesis of the phosphorylated product by the enzymatic preparations” value (from here on “synthesis of the phosphorylated product”) [1] does the source give for `O=CC[C@@H](O)[C@H](O)[C@H](O)COP(=O)(O)O` [2-deoxy-D-glucose-6-phosphate] here?
Answer: The value was “able to catalyze the synthesis”.

Question: With `O=CC[C@@H](O)[C@H](O)[C@H](O)CO` [2-deoxy-D-glucose] as the compound, how does the “activity as phosphoryl acceptor” value [2] read?
Answer: The value was “inert”.

Question: For `O=C[C@H](O)[C@@H](O)[C@H](O)[C@H](S)COP(=O)(O)O` [5-thioglucose 6-phosphate], which “inhibition constant Ki of rat brain hexokinase, lower than that seen with glucose 6-phosphate” value (rat brain hexokinase) is on record?
Answer: Its value is 10 fold.

Question: For `Nc1ncnc2c1ncn2[C@@H]1O[C@H](COP(=O)(O)OP(=O)(O)O)[C@@H](O)[C@H]1O` [ADP], which “inhibition of the enzyme” value ([3]; donor ATP, acceptor D-glucose) is on record?
Answer: The value was “inhibit”.

Question: What about the “inhibition of the enzyme” value ([4]; acceptor D-glucose) of the same compound?
Answer: Its value is “inhibit”.

Question: For `Nc1ncnc2c1ncn2[C@@H]1O[C@H](COP(=O)(O)O)[C@@H](O)[C@H]1O` [AMP], which “inhibition of the enzyme” value ([3]; donor ATP, acceptor D-glucose) is on record?
Answer: Its value is “inhibit”.

Question: With `Nc1ncnc2c1ncn2[C@@H]1O[C@H](COP(=O)(O)OP(=O)(O)OP(=O)(O)O)[C@@H](O)[C@H]1O` [ATP, adenosine triphosphate] as the compound, how does the Turnover ([3]; acceptor D-glucose, label is the phosphate donor) read?
Answer: The Turnover was 116 s⁻¹.

Question: What about the Km ([3]; pH 7.5, donor ATP) of the same compound?
Answer: Its Km is 880 µM.

Question: And the Ki ([3]; pH 7.5, donor ATP)?
Answer: The Ki was 6.6 mM.

Question: What about the Km ([3]; pH 8.6, donor ATP) of the same compound?
Answer: Its Km is 1400 µM.

Question: And the Ki ([3]; pH 8.6, donor ATP)?
Answer: Its Ki is 7.4 mM.

Question: And the Turnover [5]?
Answer: Its Turnover is “Dimer: 2 x 30000 Turnover: 63 s^-1”.

Question: What about the “activity with phosphate donor” value [6] of the same compound?
Answer: The value was “No activity with ATP”.

Question: And the Turnover ([4]; acceptor D-glucose, label is the phosphate donor, Propionibacterium shermanii enzyme)?
Answer: Its Turnover is 25 s⁻¹.

Question: And the Km ([4]; label is the phosphate donor)?
Answer: The Km was 1500 µM.

Question: Which Km ([4]; label is the phosphate donor) does the source give for `Nc1ccn([C@@H]2O[C@H](COP(=O)(O)OP(=O)(O)OP(=O)(O)O)[C@@H](O)[C@H]2O)c(=O)n1` [CTP] here?
Answer: The Km was 5900 µM.

Question: Which “phosphorylation of the acceptor (new substance in the 24 hours-incubation medium)” value (“phosphorylation of the acceptor” below) [7] does the source give for `O=C[C@@H](O)[C@H](O)[C@H](O)[C@H](O)CO` [D-altrose] here?
Answer: The value was “not phosphorylated”.

Question: What does the source list for `O=C(CO)[C@@H](O)[C@H](O)[C@H](O)CO` [D-fructose]?
Answer: activity as phosphoryl acceptor [2]: inert; phosphorylation of the acceptor (new substance in the 24 hours-incubation medium) [7]: not phosphorylated

Question: With `O=C[C@H](O)[C@@H](O)[C@@H](O)[C@H](O)CO` [D-galactose] as the compound, how does the “activity as phosphoryl acceptor” value [2] read?
Answer: Its value is “inert”.

Question: And the “phosphorylation of the acceptor” value [7]?
Answer: The value was “not phosphorylated”.

Question: With `O=P(O)(O)OCC1OC(OP(=O)(O)O)C(O)C(O)C1O` [D-glucose-1,6-bisphosphate] as the compound, how does the “synthesis of the phosphorylated product” value [1] read?
Answer: The value was “could not be synthesized”.

Question: For `O=P(O)(O)OC[C@H]1O[C@@H](S)[C@H](O)[C@@H](O)[C@@H]1O` [D-glucothiose-6-phosphate], which “synthesis of the phosphorylated product” value [1] is on record?
Answer: Its value is “able to catalyze the synthesis”.

Question: Which results are given for `O=C[C@@H](O)[C@@H](O)[C@H](O)[C@H](O)CO` [D-mannose]?
Answer: activity as % of the activity with glucose ([2]; donor ATP): About 30% of the activity with glucose.; activity as % of the activity with glucose ([2]; donor polyphosphate): ~40%; Km ([2]; pH 7.0, 30°C, donor polyphosphate): 150 µM

Question: For `O=C[C@H](O)[C@H](O)[C@H](O)CO` [D-ribose], which “phosphorylation of the acceptor” value [7] is on record?
Answer: The value was “not phosphorylated”.

Question: Which “inhibition of the enzyme” value ([3]; donor ATP, acceptor D-glucose) does the source give for `O=C[C@H](O)[C@@H](O)[C@H](O)CO` [D-xylose] here?
Answer: The value was “inhibit”.

Question: And the “inhibition of the enzyme” value ([4]; acceptor D-glucose)?
Answer: Its value is “inhibits”.

Question: For `O=C(CO)[C@@H](O)[C@H](O)[C@H](O)COP(=O)(O)O` [Fru6P], which “inhibition of the enzyme” value ([3]; donor ATP, acceptor D-glucose) is on record?
Answer: Its value is “inhibit”.

Question: What about the “inhibition of the enzyme” value [3, 9] of the same compound?
Answer: Its value is “inhibit”.

Question: Which “inhibition of the enzyme” value [3, 9] does the source give for `O=P(O)(O)OC[C@H]1OC(O)[C@H](O)[C@@H](O)[C@@H]1O` (stereo partly drawn) [Glc6P] here?
Answer: The value was “inhibit”.

Question: And the “inhibition of the enzyme” value ([4]; acceptor D-glucose)?
Answer: Its value is “inhibit”.

Question: For `[Cl-].[Na+]` [NaCl], which “inhibits above (concentration)” value [8] is on record?
Answer: Its value is “NaCl above 100 mM inhibits. Mol. weight: 59000”.

Question: With `O=P(O)(O)OP(=O)(O)OP(=O)(O)O` [TriPoly(P)] as the compound, how does the “inhibition of the enzyme” value ([4]; acceptor D-glucose) read?
Answer: The value was “inhibits”.

Question: Which “phosphorylation of the acceptor” value [7] does the source give for `O=P(O)(O)O[C@H]1O[C@H](CO)[C@@H](O)[C@H](O)[C@H]1O` [α-D-glucose-1-phosphate] here?
Answer: Its value is “not phosphorylated”.

Source: patent EP2150620B1, “Method for preparing C-6 phosphorylated D-aldohexoses and C-6 phosphorylated D-aldohexose derivatives, and new C-6 phosphorylated D-aldohexose derivatives” (Libragen, priority 2007, dated 2008)
